One data set deals with primary airway epithelia. The following applies: cited from earlier work.
For a further data set, the system named is M. haemolytica. Put plainly: M. haemolytica killing by AEC cultures. The data set is classed as cell-based.
The next data set deals with H. influenzae. Kind of data set: H. influenzae (NTHi) killing on airway epithelial cell cultures with LPO and I^− or SCN^−. Format: cell-based.
The subject of a further data set is S. aureus. Put plainly: S. aureus killing on airway epithelial cell cultures with LPO and I^− or SCN^−. The data set is classed as cell-based.
For the next data set, the system named is human AEC. Kind of data set: HOI generation by AEC, fluorescein absorbance at 508 nm. The data set is classed as cell-based. The following applies: apical ATP (100 μM), I^− (400 μM), LPO (9 μg/ml), fluorescein (16 μM), 3 hours.
Data set [1] is described as follows: I^− accumulation in airway surface fluid after oral KI intake.
The next data set deals with eukaryotic cells. To be noted: HOI: at bactericidal concentrations; cited from earlier work.
A further data set concerns A2 strain of RSV. Kind of data set: Cell free exposure of RSV to Duox/LPO system components, then titering. The following applies: 5 min.
Data set [2] has as its system influenza A (H1N1, A/PR/8/34). The data set is classed as cell-based. To be noted: pH 6.5.
Another data set has as its system SARS-CoV (Urbani strain). The data set is classed as cell-based. The following applies: human airway epithelia, 5 MOI, ATP (100 μM), 6.5 mg/mL LPO, NaI, pH 6.5, 24 hr.
Data set [3] concerns adenovirus expressing eGFP. Kind of data set: In situ inactivation of adenovirus on AEC. To be noted: porcine airway epithelia, 50 MOI, ATP (100 μM), 6.5 mg/mL LPO, NaI, PBS pH 6.5.
For a further data set, the system named is adenovirus (serotype 5). Put plainly: In vitro (cell free) inactivation of adenovirus expressing eGFP. The following applies: 5 min exposure, readout 24 hr later.

Consider 5 compounds from patent publication US20160199407A1, “HALIDES IN THE TREATMENT OF PATHOGENIC INFECTION” (THE UNIVERSITY OF IOWA RESEARCH FOUNDATION, priority 2008, published 2016).

“Also recorded” adds a separate entry of the source. Read-outs that look alike come from different tables or passages of the source.

With `I` [I^−, iodide], the “Basolateral concentration above which primary airway epithelia secrete the anion” value with primary airway epithelia is on record as “higher than 1 μM”. Also, in the data set with M. haemolytica, the “Elimination of M. haemolytica in the presence of I^− as compared to SCN^−” value was “more effective” and the “Susceptibility of M. haemolytica to supported antibacterial activity” value is recorded as “susceptible”. Also, the “Bacterial survival (M. haemolytica)” value in the data set with M. haemolytica (LPO and 250 μM I^−, 3 hours) is recorded as “No surviving bacteria”. The “Bacterial survival (H. influenzae)” value in the data set with H. influenzae (200 and 500 μM I−, LPO (7 μg/ml), epithelial cells, 1000 CFU, 3 hrs) was “No surviving bacteria”. Besides, the “I^− concentration sufficient to support strong NTHi-killing activity of AEC” value in the data set with H. influenzae (LPO present, catalase absent, data not shown) is at most 50 µM. In addition, in the data set on H. influenzae (LPO, airway epithelia, 3 hr), the “I^− concentration at which numbers of surviving H. influenzae were lower” value was at least 10 µM and the “I^− concentration giving complete eradication of bacteria (H. influenzae)” value lay in the range of 50 to 200 µM. In addition, the “Bacterial survival (S. aureus)” value in the data set on S. aureus (50 and 200 μM I^−, LPO (7 μg/ml), epithelial cells, 1000 CFU, 3 hrs) is reported as “No surviving bacteria”. For the same compound, in the data set with S. aureus (AEC cultures, data not shown), the “I^− concentration supporting complete elimination of S. aureus” value is 50 µM. Moreover, in the data set on S. aureus (LPO, airway epithelia, 3 hr), the “I^− concentration at which numbers of surviving S. aureus were lower” value is at least 10 µM and the “I^− concentration giving complete eradication of bacteria (S. aureus)” value fell in the range of 50 to 200 µM. Also, the “HOI production by AEC” value with human AEC is reported as “can support HOI production”.
Regarding `[I-].[K+]` [KI, potassium iodide], in data set [1] (8 hours after oral 130 mg KI), the “Airway surface fluid I^− concentration relative to serum I^− level” value is on record as “more than 50 fold”. Moreover, in [1] (oral 130 mg KI), the “Sufficiency to achieve the airway surface fluid I^− level (10-50 μM) necessary for HOI-mediated elimination of bacteria and viruses” value was “more than sufficient”; the “Time the high airway surface fluid I^− concentration was maintained” value is recorded as “several hours”. For the same compound, in data set [1] (two hours after oral KI tablet (130 mg), human subject), the “I^− concentration in airway surface fluid” value was around 200 µM.
On to `N#CSO` [OSCN^−, hypothiocyanite, reference compound], for which the “Toxicity to eukaryotic cells” value with eukaryotic cells is reported as “not toxic”. Also, the “Virucidal effects on RSV” value with A2 strain of RSV (PBS) is recorded as “minimal virucidal effects”. Moreover, in data set [2], the “Influenza viral antigen (NS1)” value is “dose dependent decrease”. In the data set on H. influenzae (AEC cultures, data not shown), the “Susceptibility of NTHi” value is given as “resistant”. In addition, the “Bactericidal activity against H. influenzae” value with H. influenzae (airway epithelia, LPO) is listed as “ineffective”.
Regarding `OI` [HOI], the “Toxicity to eukaryotic cells” value in the data set with eukaryotic cells is “not toxic”. In addition, in the data set on SARS-CoV (Urbani strain), the “SARS-CoV inactivation (N gene product immunoreactivity)” value is reported as “sufficient H2O2 to support; also recorded: marked reduction”. In the data set with A2 strain of RSV, the “Solution pH at which antiviral effect against RSV was most marked” value is at most 6.5. For the same compound, the “Drop in RSV titer” value in the data set with A2 strain of RSV (PBS) was determined as 5 log. In addition, in [2], the “Influenza viral antigen (NS1)” value is given as “dose dependent decrease”. Moreover, in the data set on H. influenzae (airway epithelia, LPO), the “Bactericidal activity against H. influenzae” value is listed as “strong bactericidal activity”. The “Efficiency of HOI producing system against S. aureus versus OSCN^− producing mechanism” value with S. aureus (airway epithelia, LPO) is given as “more efficient”. Moreover, the “Adenovirus inactivation on airway epithelia (GFP expression)” value in data set [3] is listed as “sufficient H2O2 to support; also recorded: dose dependent decrease”. Besides, the “Adenovirus inactivation (eGFP expression in transduced A549 cells)” value with adenovirus (serotype 5) is given as “inactivated; also recorded: dose-dependent decrease”.
In the case of `N#CS` [SCN^−, thiocyanate, reference compound], the “Rate of apical-to-basolateral leakage” value in the data set on primary airway epithelia (Moskwa, 2007) was below 10 %/hour. The “Basolateral concentration above which primary airway epithelia secrete the anion” value with primary airway epithelia (published data) is above 5 µM. For the same compound, in the data set on M. haemolytica, the “Susceptibility of M. haemolytica to supported antibacterial activity” value was “susceptible”. Besides, in the data set on M. haemolytica (250 μM SCN^−, 3 hours), the “Killing of M. haemolytica” value was “supported killing”. Further, in the data set on H. influenzae (LPO, epithelial cells, 3 hrs, 500 μM SCN^− controls), the “SCN− in place of I^− in the oxidative mechanism eliminating H. influenzae” value was “cannot replace I^−”. In addition, in the data set with S. aureus (AEC cultures, data not shown), the “SCN^− concentration necessary for killing of S. aureus” value was above 120 µM.
